{"source": "patent US8273719B2", "about": "“Wrinkle-diminishing agent” (Kao Corporation, priority 2004, dated 2012)", "system": "skin which had suffered from photoaging", "assay": "Wrinkle alleviating effect on photoaged (UVA/UVB irradiated) hairless mice: wrinkle score, dermis collagen content, epidermis thickness", "assay_type": "in vivo", "text": "The wrinkle alleviating effect of the antiwrinkle agent of the present invention when applied to a skin which had suffered from photoaging was examined by the following test method. A group of ten hairless mice which were ten weeks old at the start of the test was used. Photoaging was caused by irradiating the mice with UVA and UVB once a day and five times per week for continuous eight weeks. A UVA dose of 20 J/cm^2 was increased to 25 J/cm^2 and then 30 J/cm^2 every week, and a UVB dose of 20 mJ/cm^2 was increased to 30 mJ/cm^2 and then 40 mJ/cm^2 every week, and the respective maximum doses were used on and after the third week. The wrinkle alleviating effect was evaluated in respect of the wrinkle score, the dermis collagen content and the epidermis thickness. […] Specifically, the wrinkles were macroscopically evaluated with respect to the size and depth and rated in 4 stages: “large and deep wrinkles can be recognized” was rated 3, “some wrinkles can be recognized” was rated 2, “any wrinkles cannot be recognized” was rated 1, and “normal and fine skin is observed” was rated 0. Whole skin was sampled and homogenized by a POLYTRON Homogenizer (manufactured by KINEMATICA AG), and then the collagen fraction was extracted and subjected to acid hydrolysis followed by quantitative determination of a hydroxyproline content using an amino acid analyzer (manufactured by JASCO Corporation). […]"}
{"smiles": "C=CCc1ccc(O)c(OC)c1", "note": "[eugenol]", "values": [{"measurement": "Wrinkle alleviating effect on the wrinkles caused by the photoaging", "setting": "overall conclusion in words", "result": "does not have a wrinkle alleviating effect"}]}
{"smiles": "C=CCc1ccc(O[C@@H]2O[C@H](CO)[C@@H](O)[C@H](O)[C@H]2O)c(OC)c1", "note": "[eugenyl glycoside, eugenyl-β-D-glucoside]", "values": [{"measurement": "Epidermis thickness, effect compared to Comparative Example 1 (base only)", "setting": "result in words", "result": "had no such an action"}]}
